The values that follow are results of earlier work, collected in patent US20200003795A1, “DETERMINATION OF ANALYTES IN LIQUID SAMPLES BY MASS SPECTROMETRY” (Quest Diagnostics Investments Incorporated, priority 2001, published 2020).

Read-outs that look alike come from different tables or passages of the source.

For data set [1] the following is noted: circulating drug, at a therapeutic level of 1-10 μg/mL.
Assay in data set [2]: not given
This is another data set of the same source.

In the case of `Nc1nnc(-c2cccc(Cl)c2Cl)c(N)n1` [lamotrigine, 6-(2,3-dichlorophenyl)-1,2,4-triazine-3,5-diamine], in data set [1], the bound to protein entry was “about 55%”. For the same compound, for the setting “circulating”, the therapeutic level was 1 to 10 µg/mL. For the same compound, the half-life reads like this: (multiple doses) 7.5 to 23.1 h; (single dose) 6.4 to 30.4 h.

On to `CO[C@H]1C[C@@H]2CC[C@@H](C)[C@@](O)(O2)C(=O)C(=O)N2CCCC[C@H]2C(=O)O[C@H]([C@H](C)C[C@@H]2CC[C@@H](O)[C@H](OC)C2)CC(=O)[C@H](C)/C=C(\C)[C@@H](O)[C@@H](OC)C(=O)[C@H](C)C[C@H](C)/C=C/C=C/C=C/1C` [sirolimus], for which the “Therapeutic levels in blood” value in data set [2] (blood, trough) is 3 to 18 ng/mL. The mean-time-to-peak concentration in data set [2] (on administration) was 1 to 2 h.
